Experimental data as given in US7132563B1, “Convenient method for the preparation of no-carrier-added O-(2-[18F]fluoroethyl)-L-tyrosine)” (Institute of Nuclear Energy Research, priority 2005, dated 2006).
“And” between values parts separate entries of the source, which are not always exact repeats. Equal values may be shown once.

Assays:
[1] = tested on: F98 glioma cells; experiment: L-[^18F]FET uptake by F98 glioma tumor cells; assay type: cell-based, rat; conditions: for uptake ratio (radioactivity uptake of cells / total added radioactivity): 10 μCi/well
Experimental: (1) In five six-well plates, put 1×10^6 F98 glioma cells and 2 ml DMEM (1 g glucose/l) into three wells.
(2) Total of five time points (2, 5, 10, 30 minute and 1 hour) in this experiment and each time point use one six-well plate.
(3) Predetermined activity of L-[^18F]FET or [^18F]FDG (10 μCi/well) is added into each well during the experiment. Radioactivity uptake of cells divided by total added radioactivity can obtain its calculated uptake ratio.
F98 glioma cells intake L-[^18F]FET rapidly and maximal accumulation will reach after 10 minutes (uptake ratio 0.47%). As cell cannot metabolize L-[^18F]FET, therefore, the rate of L-[^18F]FET transportation by the cells become balance after ten minutes when add L-[^18F]FET; the accumulation of L-[^18F]FET in glioma cells only slightly decrease after 1 hour (uptake ratio 0.41%).

[2] = tested on: F98 glioma implanted Fischer 344 rat; experiment: PET and microPET imaging of tumor-bearing rat with L-[^18F]FET; assay type: in vivo; conditions: 400 μCi via tail vein
Experimental: (1) Positron emission tomography (PET) studies of tumor-bearing rat (Fischer 344) with L-[^18F]FET will be carry out after 11˜12 days of brain tumor (F98 glioma) implantation.
(2) Producing processes of L-[^18F]FET as described above, and estimates its administrating amount of agent according to the level of radioactivity.
(3) At the very beginning, inject 400 μCi of L-[^18F]FET into tail vein. Temporarily anesthetize rats with ether at time of 0.5, 1, 1.5 and 2 hours. Fix rat on transparent acrylic board and place on PET table after securing stretched limbs on the board. Continuously anesthetize rats with isoflurane gas. Align implant portion of head with PET machine as to assure the fixation of original imaging position.
(4) Adjust background value by blank scan before PET imaging.
(5) Use […] radioactive source proceed transmission scan for adjust tissue attenuation.
(6) Commence PET and microPET imaging. Perform image processing after reconstruction of acquired image data; the coronal and cross section scans show in FIGS. 3 and 9. […] In contrast to tumor site, normal tissue have lower radioactivity accumulation of L-[^18F]FET because of lower amino acid requirement.

[3] = tested on: F98 glioma implanted Fischer 344 rat; experiment: Biological distribution of L-[^18F]FET in F98 glioma-bearing Fischer 344 rat; assay type: in vivo
Experimental: (1) Total of twenty Fischer 344 male rats will be assessed in vivo for L-[^18F]FET biological distribution. Use the intersection of bregma and sagittal midlines as original point; so as to implant F98 glioma cells (1×10^5 cells/10 μl) at the place of 3 mm left 5 mm upward and 5 mm depth. Biological distribution test will be carry out after 11˜12 days of brain tumor implantation.
(2) Different volume of radioactive level is injected, injected volume of L-[^18F]FET for each Fischer 344 rat is 200˜300 μl, that is approximately 200˜250 μCi of activity.
(3) Inject L-[^18F]FET via tail vein, and rats are sacrificed at 15, 30, 60, 90 and 120 minutes.
(4) Dissection of rat organ is right after sacrifice. Scissors off chest and abdomen fur alone the line from genital pore upward to jowl. Next, scissors off chest above xiphisternal transversely. Open ribs aside, take blood sample from venous sinus with 0.5 ml syringe. Withdraw the needle after depletion of blood and collect the extracted heart. Collect the lung lobes with forcep.
(5) Scissors off abdominal muscle from genital pore upward to the position below xiphisternal longitudinally. Then, scissors off the opening of upper and lower edges transversely, everts muscle layers to both sides and expose celiac organs. Search for bladder in lower abdomen and sequentially removes stomach, liver, spleen, small intestine, large intestine, kidney, and muscle.
(6) After turn over the rat, scissors off fur of shoulder and removes exposed subcutaneous tumor. Cut scalp upward at lower margin of cranium above foramen magnum and expose cranial bone. Then, cut cervical portion transversely at foramen magnum and expose spinal cord. Inserts foramen magnum with scissors' tip while attach the inner surface of cranium; such that scissors' tip can reach the frontal edge of cranial cavity in order to scissor off the center of cranium. Use scissors to open cranium aside and expose brain tissue. Alone skull base insert scissors deeply to the front edge of cranial cavity in order to remove left-brain, right-brain and brain tumor.
(7) Weight all organ samples; measure radioactivity with γ-counter and convert to % ID/g (% injection dose/g organ) of each organ for estimate the biological distribution of L-[^18F]FET. […] According to reports, L-[^18F]FET can pass through blood brain barrier (BBB) and enter brain by way of L amino acid transporter system. […] Tumor- to-normal brain ratio of L-[^18F]FET at 15, 30, 60, 90 and 120 minutes are 1.54, 1.74, 3.16, 3.14 and 2.34 respectively. […] Some papers reported that patient with tumor observes no significant accumulation of radioactivity in pancreas when use positron emission tomography (PET), the discrepant results were assumed that human and rat have different metabolic pathway. Furthermore, biological distribution study of L-[^18F]FET indicated radioactivity accumulation in tumor cells (expressed by % ID/g) are much higher than other normal organs (left-brain, small intestine, kidney, liver, blood and muscle) except pancreas, this means L-[^18F]FET can be a potential PET agent for substantially different site of tumor.

[4] = 15 min after tail vein injection, tumor-bearing rat
[5] = 30 min after tail vein injection, tumor-bearing rat
[6] = 60 min after tail vein injection, tumor-bearing rat
[7] = 90 min after tail vein injection, tumor-bearing rat
[8] = 120 min after tail vein injection, tumor-bearing rat

For N[C@@H](Cc1ccc(OCC[18F])cc1)C(=O)O [L-[^18F]FET, O-(2-[^18F]fluoroethyl)-L-Tyrosine], the “time to maximal accumulation in cells” value [1] was 10 min, the “uptake ratio (radioactivity uptake of cells / total added radioactivity)” value ([1]; after 10 minutes (maximal accumulation)) was 0.47% and the “uptake ratio (radioactivity uptake of cells / total added radioactivity)” value ([1]; after 1 hour) was 0.41%. For the same molecule, the “radioactivity accumulation in brain tumor on PET imaging” value ([2]; F98 glioma Fischer 344 rat) was “significant radioactivity accumulation in brain tumor”, the “time of maximum uptake in brain tumor on PET imaging” value ([2]; imaging at 0.5, 1, 1.5 and 2 hours) was 90 min and the “accumulated radioactivity in Blood” value [3, 4] was 0.41 ± 0.03 % ID/g. The “accumulated radioactivity in Heart” value [3, 4] was 0.30 ± 0.06 % ID/g, the “accumulated radioactivity in Kidney” value [3, 4] was 0.33 ± 0.01 % ID/g and the “accumulated radioactivity in Large intestine” value [3, 4] was 0.21 ± 0.01 % ID/g. For the same molecule, the “accumulated radioactivity in Left brain” value [3, 4] was 0.08 ± 0.01 % ID/g, the “accumulated radioactivity in Liver” value [3, 4] was 0.27 ± 0.06 % ID/g and the “accumulated radioactivity in Lung” value [3, 4] was 0.32 ± 0.05 % ID/g. For the same molecule, the “accumulated radioactivity in Muscle” value [3, 4] was 0.19 ± 0.03 % ID/g, the “accumulated radioactivity in Pancreas” value [3, 4] was 0.98 % ID/g and 0.98 ± 0.25 % ID/g and the “accumulated radioactivity in Right brain” value [3, 4] was 0.07 ± 0.02 % ID/g. The “accumulated radioactivity in Small intestine” value [3, 4] was 0.23 ± 0.11 % ID/g, the “accumulated radioactivity in Spleen” value [3, 4] was 0.31 ± 0.08 % ID/g and the “accumulated radioactivity in Stomach” value [3, 4] was 0.24 ± 0.05 % ID/g. For the same molecule, the “accumulated radioactivity in Tumor” value [3, 4] was 0.12 ± 0.02 % ID/g, the Tumor-to-normal brain ratio ([3]; 15 minutes after injection) was 1.54 and the “accumulated radioactivity in Blood” value [3, 5] was 0.39 ± 0.03 % ID/g. The “accumulated radioactivity in Heart” value [3, 5] was 0.40 ± 0.07 % ID/g, the “accumulated radioactivity in Kidney” value [3, 5] was 0.34 ± 0.06 % ID/g and the “accumulated radioactivity in Large intestine” value [3, 5] was 0.28 ± 0.05 % ID/g. For the same molecule, the “accumulated radioactivity in Left brain” value [3, 5] was 0.25 ± 0.05 % ID/g, the “accumulated radioactivity in Liver” value [3, 5] was 0.37 ± 0.07 % ID/g and the “accumulated radioactivity in Lung” value [3, 5] was 0.43 ± 0.09 % ID/g. For the same molecule, the “accumulated radioactivity in Muscle” value [3, 5] was 0.28 ± 0.01 % ID/g, the “accumulated radioactivity in Pancreas” value [3, 5] was 1.76 % ID/g and 1.76 ± 0.16 % ID/g and the “accumulated radioactivity in Right brain” value [3, 5] was 0.21 ± 0.03 % ID/g. For the same molecule, the “accumulated radioactivity in Small intestine” value [3, 5] was 0.52 ± 0.26 % ID/g, the “accumulated radioactivity in Spleen” value [3, 5] was 0.50 ± 0.11 % ID/g and the “accumulated radioactivity in Stomach” value [3, 5] was 0.36 ± 0.06 % ID/g. For the same molecule, the “accumulated radioactivity in Tumor” value [3, 5] was 0.43 ± 0.10 % ID/g, the Tumor-to-normal brain ratio ([3]; 30 minutes after injection) was 1.74 and the “accumulated radioactivity in Blood” value [3, 6] was 0.38 ± 0.00 % ID/g. For the same molecule, the “accumulated radioactivity in Heart” value [3, 6] was 0.43 ± 0.07 % ID/g, the “accumulated radioactivity in Kidney” value [3, 6] was 0.41 ± 0.08 % ID/g and the “accumulated radioactivity in Large intestine” value [3, 6] was 0.42 ± 0.06 % ID/g. The “accumulated radioactivity in Left brain” value [3, 6] was 0.40 ± 0.06 % ID/g, the “accumulated radioactivity in Liver” value [3, 6] was 0.41 ± 0.06 % ID/g and the “accumulated radioactivity in Lung” value [3, 6] was 0.43 ± 0.07 % ID/g. For the same molecule, the “accumulated radioactivity in Muscle” value [3, 6] was 0.36 ± 0.04 % ID/g, the “accumulated radioactivity in Pancreas” value [3, 6] was 2.55 % ID/g and 2.55 ± 0.31 % ID/g and the “accumulated radioactivity in Right brain” value [3, 6] was 0.34 ± 0.03 % ID/g. For the same molecule, the “accumulated radioactivity in Small intestine” value [3, 6] was 0.65 ± 0.04 % ID/g, the “accumulated radioactivity in Spleen” value [3, 6] was 0.51 ± 0.09 % ID/g and the “accumulated radioactivity in Stomach” value [3, 6] was 0.40 ± 0.05 % ID/g. The “accumulated radioactivity in Tumor” value [3, 6] was 1.26 ± 0.22 % ID/g, the Tumor-to-normal brain ratio ([3]; 60 minutes after injection) was 3.16 and the “accumulated radioactivity in Blood” value [3, 7] was 0.37 ± 0.03 % ID/g. For the same molecule, the “accumulated radioactivity in Heart” value [3, 7] was 0.47 ± 0.02 % ID/g, the “accumulated radioactivity in Kidney” value [3, 7] was 0.42 ± 0.07 % ID/g and the “accumulated radioactivity in Large intestine” value [3, 7] was 0.46 ± 0.04 % ID/g. The “accumulated radioactivity in Left brain” value [3, 7] was 0.48 ± 0.14 % ID/g, the “accumulated radioactivity in Liver” value [3, 7] was 0.49 ± 0.01 % ID/g and the “accumulated radioactivity in Lung” value [3, 7] was 0.45 ± 0.02 % ID/g. For the same molecule, the “accumulated radioactivity in Muscle” value [3, 7] was 0.44 ± 0.10 % ID/g, the “accumulated radioactivity in Pancreas” value [3, 7] was 2.28 % ID/g and 2.28 ± 0.76 % ID/g and the “accumulated radioactivity in Right brain” value [3, 7] was 0.48 ± 0.08 % ID/g. For the same molecule, the “accumulated radioactivity in Small intestine” value [3, 7] was 0.43 ± 0.11 % ID/g, the “accumulated radioactivity in Spleen” value [3, 7] was 0.48 ± 0.11 % ID/g and the “accumulated radioactivity in Stomach” value [3, 7] was 0.43 ± 0.04 % ID/g. The “accumulated radioactivity in Tumor” value [3, 7] was 1.49 % ID/g and 1.49 ± 0.40 % ID/g, the Tumor-to-normal brain ratio ([3]; 90 minutes after injection) was 3.14 and the “maximum accumulation in normal brain tissue” value ([3]; 90 minutes after injection, tumor-bearing rat) was 0.48 % ID/g. The “accumulated radioactivity in Blood” value [3, 8] was 0.36 ± 0.03 % ID/g, the “accumulated radioactivity in Heart” value [3, 8] was 0.43 ± 0.07 % ID/g and the “accumulated radioactivity in Kidney” value [3, 8] was 0.41 ± 0.09 % ID/g. The “accumulated radioactivity in Large intestine” value [3, 8] was 0.38 ± 0.09 % ID/g, the “accumulated radioactivity in Left brain” value [3, 8] was 0.43 ± 0.09 % ID/g and the “accumulated radioactivity in Liver” value [3, 8] was 0.41 ± 0.09 % ID/g. The “accumulated radioactivity in Lung” value [3, 8] was 0.40 ± 0.06 % ID/g, the “accumulated radioactivity in Muscle” value [3, 8] was 0.37 ± 0.10 % ID/g and the “accumulated radioactivity in Pancreas” value [3, 8] was 2.24 % ID/g and 2.24 ± 0.72 % ID/g. The “accumulated radioactivity in Right brain” value [3, 8] was 0.34 ± 0.04 % ID/g, the “accumulated radioactivity in Small intestine” value [3, 8] was 0.41 ± 0.09 % ID/g and the “accumulated radioactivity in Spleen” value [3, 8] was 0.47 ± 0.04 % ID/g. The “accumulated radioactivity in Stomach” value [3, 8] was 0.41 ± 0.03 % ID/g, the “accumulated radioactivity in Tumor” value [3, 8] was 1.02 ± 0.16 % ID/g and the Tumor-to-normal brain ratio ([3]; 120 minutes after injection) was 2.34. The “time of maximum accumulation in brain tumor and normal brain tissue” value ([3]; biological distribution, tumor-bearing rat) was 90 min and the “radioactivity in urine sample (excretion via urine)” value ([3]; tumor-bearing rat) was “high level of radioactivity”.
